# Reference: patent US20210254056A1, “IDENTIFICATION AND TARGETED MODULATION OF GENE SIGNALING NETWORKS” (CAMP4 THERAPEUTICS CORPORATION, priority 2017, published 2021)
# Read-outs that look alike come from different tables or passages of the source.
# Tested on: hepatocytes
# Assay: RNA-seq of hepatocytes treated with Phase III failure compounds
# Conditions: for significant modulation of expression of disease genes: q≤0.05, genes in the value or listed in the block; for significant modulation of expression of any of the genes analyzed: p≤0.05
# Protocol: RNA-seq was performed to determine the effects of the compounds on hepatocytes.
# Significance was determined by the criteria of FPKM≥0.5, a log 2(fold-change)≥1, and a […].
# [1] = RNA-seq of Table 36, FPKM≥0.5, log 2(fold-change)≥1, q-value≤0.05
smiles,measurement,setting,value
O=P(O)(NCCCl)NCCCl [Palifosfamide],significant modulation of expression of disease genes,"RNA-seq, hepatocytes",significantly (q≤0.05) modulate expression of RMRP and FAM111B
same,RNA-seq results: A1BG expression,"gene A1BG, hepatocytes",−0.13
same,RNA-seq results: AGTR1 expression,"gene AGTR1, hepatocytes",−0.67
same,RNA-seq results: AGXT expression,"gene AGXT, hepatocytes",0.30
same,RNA-seq results: AHI1 expression,"gene AHI1, hepatocytes",0.06
same,RNA-seq results: AMPD3 expression,"gene AMPD3, hepatocytes",−0.01
same,RNA-seq results: AMT expression,"gene AMT, hepatocytes",0.13
same,RNA-seq results: ANGPTL3 expression,"gene ANGPTL3, hepatocytes",−0.28
same,RNA-seq results: ANKS4B expression,"gene ANKS4B, hepatocytes",−0.16
same,RNA-seq results: ANKS6 expression,"gene ANKS6, hepatocytes",0.12
same,RNA-seq results: ANPEP expression,"gene ANPEP, hepatocytes",−0.12
same,RNA-seq results: AOC2 expression,"gene AOC2, hepatocytes",0.34
same,RNA-seq results: APOA2 expression,"gene APOA2, hepatocytes",−0.53
same,RNA-seq results: APOA5 expression,"gene APOA5, hepatocytes",0.00
same,RNA-seq results: APOB expression,"gene APOB, hepatocytes",−0.23
same,RNA-seq results: COG5 expression,"gene COG5, hepatocytes",−0.03
same,RNA-seq results: COG6 expression,"gene COG6, hepatocytes",0.08
same,RNA-seq results: COL1A1 expression,"gene COL1A1, hepatocytes",0.48
same,RNA-seq results: COX6A1 expression,"gene COX6A1, hepatocytes",−0.07
same,RNA-seq results: CP expression,"gene CP, hepatocytes",0.16
same,RNA-seq results: CPS1 expression,"gene CPS1, hepatocytes",0.84
same,RNA-seq results: CPT1A expression,"gene CPT1A, hepatocytes",1.06
same,RNA-seq results: CPT2 expression,"gene CPT2, hepatocytes",0.33
same,RNA-seq results: CROT expression,"gene CROT, hepatocytes",−0.69
same,RNA-seq results: CSPP1 expression,"gene CSPP1, hepatocytes",0.17
same,RNA-seq results: CTC1 expression,"gene CTC1, hepatocytes",0.2
same,RNA-seq results: CTDSP2 expression,"gene CTDSP2, hepatocytes",0.56
same,RNA-seq results: CTH expression,"gene CTH, hepatocytes",1.87
same,RNA-seq results: CTNS expression,"gene CTNS, hepatocytes",0.42
same,RNA-seq results: CTSF expression,"gene CTSF, hepatocytes",0.68
same,RNA-seq results: CTSK expression,"gene CTSK, hepatocytes",−0.49
same,RNA-seq results: CYB5A expression,"gene CYB5A, hepatocytes",0.43
same,RNA-seq results: CYB5R3 expression,"gene CYB5R3, hepatocytes",0.05
same,"RNA-seq results, CYP2B6 expression","gene CYP2B6, hepatocytes",0.03
same,RNA-seq results: CYP2B6 expression,"gene CYP2B6, hepatocytes",0.58
same,"RNA-seq results, CYP2C19 expression","gene CYP2C19, hepatocytes",0.12
same,RNA-seq results: CYP2C19 expression,"gene CYP2C19, hepatocytes",0.2
same,"RNA-seq results, CYP2D6 expression","gene CYP2D6, hepatocytes",0.10
same,RNA-seq results: CYP2D6 expression,"gene CYP2D6, hepatocytes",0.47
same,"RNA-seq results, CYP3A4 expression","gene CYP3A4, hepatocytes",−0.49
same,RNA-seq results: CYP3A4 expression,"gene CYP3A4, hepatocytes",2.11
same,"RNA-seq results, CYP7B1 expression","gene CYP7B1, hepatocytes",−0.21
same,RNA-seq results: CYP7B1 expression,"gene CYP7B1, hepatocytes",0.28
same,RNA-seq results: CYP27A1 expression,"gene CYP27A1, hepatocytes",0.51
same,"RNA-seq results, CYP39A1 expression","gene CYP39A1, hepatocytes",−0.43
same,RNA-seq results: CYP39A1 expression,"gene CYP39A1, hepatocytes",0.62
same,RNA-seq results: DAO expression,"gene DAO, hepatocytes",−1.2
same,RNA-seq results: DBT expression,"gene DBT, hepatocytes",−0.43
same,RNA-seq results: DCDC2 expression,"gene DCDC2, hepatocytes",−2.5
same,RNA-seq results: DCXR expression,"gene DCXR, hepatocytes",−0.23
same,RNA-seq results: FABP1 expression,"gene FABP1, hepatocytes",−0.17
same,RNA-seq results: FADD expression,"gene FADD, hepatocytes",−0.29
same,RNA-seq results: FAM111A expression,"gene FAM111A, hepatocytes",−0.05
same,RNA-seq results: FAM111B expression,"gene FAM111B, hepatocytes",−2.02
same,RNA-seq results: FAN1 expression,"gene FAN1, hepatocytes",−0.36
same,RNA-seq results: FARS2 expression,"gene FARS2, hepatocytes",−0.34
same,RNA-seq results: FASLG expression,"gene FASLG, hepatocytes",−1.44
same,RNA-seq results: FGA expression,"gene FGA, hepatocytes",0.12
same,RNA-seq results: FGD1 expression,"gene FGD1, hepatocytes",−0.27
same,RNA-seq results: FGFR2 expression,"gene FGFR2, hepatocytes",−0.22
same,RNA-seq results: FIG4 expression,"gene FIG4, hepatocytes",0.06
same,RNA-seq results: FIS1 expression,"gene FIS1, hepatocytes",−0.18
same,RNA-seq results: FTCD expression,"gene FTCD, hepatocytes",0.32
same,RNA-seq results: FTH1 expression,"gene FTH1, hepatocytes",0.48
same,RNA-seq results: FUCA1 expression,"gene FUCA1, hepatocytes",0.24
same,RNA-seq results: FXN expression,"gene FXN, hepatocytes",−0.02
same,RNA-seq results: G6PC3 expression,"gene G6PC3, hepatocytes",−0.25
same,RNA-seq results: G6PC expression,"gene G6PC, hepatocytes",3.27
same,RNA-seq results: G6PD expression,"gene G6PD, hepatocytes",0.13
same,RNA-seq results: GALK1 expression,"gene GALK1, hepatocytes",−0.37
same,RNA-seq results: GALK2 expression,"gene GALK2, hepatocytes",−0.25
same,RNA-seq results: GALT expression,"gene GALT, hepatocytes",0.41
same,RNA-seq results: GATA6 expression,"gene GATA6, hepatocytes",0.11
same,RNA-seq results: GATM expression,"gene GATM, hepatocytes",−0.46
same,RNA-seq results: GBA expression,"gene GBA, hepatocytes",−0.11
same,RNA-seq results: GBE1 expression,"gene GBE1, hepatocytes",0.2
same,RNA-seq results: GCH1 expression,"gene GCH1, hepatocytes",−0.38
same,RNA-seq results: GCKR expression,"gene GCKR, hepatocytes",−0.08
same,RNA-seq results: GCLC expression,"gene GCLC, hepatocytes",0.14
same,RNA-seq results: GOSH expression,"gene GOSH, hepatocytes",−0.4
same,RNA-seq results: RRM2B,"gene RRM2B, hepatocytes",−0.21
same,RNA-seq results: RSAD1,"gene RSAD1, hepatocytes",0.12
same,RNA-seq results: SAMHD1,"gene SAMHD1, hepatocytes",−0.34
same,RNA-seq results: SC5D,"gene SC5D, hepatocytes",−0.37
same,RNA-seq results: SCARB1,"gene SCARB1, hepatocytes",0.05
same,RNA-seq results: SCN9A,"gene SCN9A, hepatocytes",−0.07
same,RNA-seq results: SDCCAG8,"gene SDCCAG8, hepatocytes",−0.12
same,RNA-seq results: SEPN1,"gene SEPN1, hepatocytes",0.00
same,RNA-seq results: SERAC1,"gene SERAC1, hepatocytes",−0.07
same,RNA-seq results: SERPINA1,"gene SERPINA1, hepatocytes",−0.19
same,RNA-seq results: SERPING1,"gene SERPING1, hepatocytes",−0.31
same,RNA-seq results: SERPINI1,"gene SERPINI1, hepatocytes",−0.28
same,RNA-seq results: SETBP1,"gene SETBP1, hepatocytes",0.11
same,RNA-seq results: SFXN4,"gene SFXN4, hepatocytes",−0.14
same,RNA-seq results: SLC10A1,"gene SLC10A1, hepatocytes",−0.40
same,RNA-seq results: SLC10A3,"gene SLC10A3, hepatocytes",0.53
same,RNA-seq results: SLC10A5,"gene SLC10A5, hepatocytes",−0.06
same,RNA-seq results: SLC10A7,"gene SLC10A7, hepatocytes",−0.46
same,RNA-seq results: SLC11A2,"gene SLC11A2, hepatocytes",−0.01
same,RNA-seq results: SLC19A1,"gene SLC19A1, hepatocytes",−0.10
same,RNA-seq results: SLC19A2,"gene SLC19A2, hepatocytes",−0.05
same,RNA-seq results: SLC19A3,"gene SLC19A3, hepatocytes",−0.26
same,RNA-seq results: SLC22A1,"gene SLC22A1, hepatocytes",−0.18
same,RNA-seq results: SLC22A5,"gene SLC22A5, hepatocytes",0.03
same,RNA-seq results: SLC25A1,"gene SLC25A1, hepatocytes",0.36
same,RNA-seq results: SLC25A10,"gene SLC25A10, hepatocytes",0.09
same,RNA-seq results: SLC25A12,"gene SLC25A12, hepatocytes",0.10
same,RNA-seq results: SLC25A13,"gene SLC25A13, hepatocytes",−0.06
same,RNA-seq results: SLC25A15,"gene SLC25A15, hepatocytes",0.04
same,RNA-seq results: SLC25A19,"gene SLC25A19, hepatocytes",−0.02
same,RNA-seq results: SLC25A20,"gene SLC25A20, hepatocytes",−0.21
same,RNA-seq results: SLC25A29,"gene SLC25A29, hepatocytes",0.39
same,RNA-seq results: SLC25A32,"gene SLC25A32, hepatocytes",−0.19
"CS(=O)(=O)c1cc(F)cc2c3c(n(Cc4ccc(Cl)cc4)c12)[C@@H](CC(=O)O)CC3 [Laropiprant (tredaptive), Laropiprant]",significant changes in gene expression,[1],not observed to cause any significant changes in gene expression
same,significant modulation of expression of any of the genes analyzed,"RNA-seq, hepatocytes",not observed to significantly modulate expression
CSCC[C@H](N)C(=O)N[C@@]1(C(=O)O)CS(=O)(=O)[C@H]2[C@H](C(=O)O)[C@H]21 [Pomaglumetad methionil],significant changes in gene expression,[1],not observed to cause any significant changes in gene expression
same,significant modulation of expression of any of the genes analyzed,"RNA-seq, hepatocytes",not observed to significantly modulate expression
"CC(C)(CO)c1cc2cc(NC(=O)C3(c4ccc5c(c4)OC(F)(F)O5)CC3)c(F)cc2n1C[C@@H](O)CO [VX-661 (tezacaptor), tezacaptor]",significant changes in gene expression,[1],not observed to cause any significant changes in gene expression
same,significant modulation of expression of any of the genes analyzed,"RNA-seq, hepatocytes",not observed to significantly modulate expression
CCC(CC)CC1(C(=O)Nc2ccccc2SC(=O)C(C)C)CCCCC1 [Dalcetrapib],Number (#) of genes having significantly changed expression,"RNA-seq, Phase III failure compounds, hepatocytes, significance: FPKM≥0.5, log 2(fold-change)≥1, q-value≥0.05 (so in the source)",43
same,significant modulation of expression of disease genes,"RNA-seq, hepatocytes",significantly (q≤0.05) modulate expression of CYP3A4 and GOSH
same,effect on disease gene expression,"RNA-seq, hepatocytes",no effect on any disease gene
CCCCC(C(=O)c1ccccc1)N1CCCC1 (centres unmarked) [a-PHP],significant changes in gene expression,,not observed to cause any significant changes in gene expression
same,significant modulation of expression of any of the genes analyzed,"RNA-seq, hepatocytes",not observed to significantly modulate expression
"CCCCCCCCCCCCCCCCCCOP(=O)([O-])OC1CC[N+](C)(C)CC1 [Perifosine (KRX-0401), Perifosine]",significant modulation of expression of any of the genes analyzed,"RNA-seq, hepatocytes",not observed to significantly modulate expression
